# Values quoted from earlier work in patent US6586473B1, “Topical drug delivery composition and method” (Medicis Pharmaceutical Corporation, priority 1989, dated 2003).
# Tested on: photoaged skin
smiles,measurement,setting,value
"CC1=C(/C=C/C(C)=C/C=C/C(C)=C/C(=O)O)C(C)(C)CCC1 [tretinoin, all trans-retinoic acid]","effects of photoaging (wrinkling, sallowness, roughness, mottled pigmentation)",0.1% cream daily for sixteen weeks,can improve the effects of photoaging
same,dermatitis as a result of treatment,"0.1% tretinoin cream, topical",most patients experience dermatitis
same,"duration of initial dermatitis (xerosis, peeling, subjective irritation)","0.1% tretinoin cream, topical",two weeks to three months
